# From US10512631B2, “Chalcone compounds” (Beth Israel Deaconess Medical Center, Inc., priority 2015, dated 2019)
# How the values were obtained:
# Assay type in all cases: cell-based
# PC3 [1] = assay: Cytoxicity / crystal violet staining, PC3; details: average of triplicates, % of apoptotic cells vs DMSO controls, N.A. = not active at 10 μM
# Protocol: (§1) PC3 (provided by Dr. Steven Balk's laboratory in Department of Medicine at Beth Israel Deaconess Medical Center), PANC02 and CRL2119 (provided by Dr. Pankaja Seth's laboratory in Department of Medicine at Beth Israel Deaconess Medical Center), A549 (ATCC) cell lines were cultured according to manufacturer's protocols. Briefly, PC3 were cultured in RPMI medium supplemented with 10% FBS (Atlanta). PANC-2, A549 and CRL2119 were cultured in DMEM High medium supplemented with 10% FBS (Atlanta). Human bronchial epithelial cells (BEC) were cultured in Airway Epithelial Cell Basal Medium with the Bronchial Epithelial cell growth kit (ATCC) according to manufacturer's protocol and used at passages 3-5.
# (§2) Cells were seeded at 5×10^3 concentration in 96 well plates and treated with test compounds or DMSO (0.001-10 μM) for 72 hours. Culture medium was removed and cells were stained with crystal violet solution (Sigma-Aldrich) for 15 minutes while shaking at room temperature. Crystal violet was then removed and cells were repeatedly washed in water. Attached cells stained with crystal violet were dried and then resuspended in 10% acetic acid. Absorbance was measured at 562 nm. The intensity of staining corresponded directly to the number of live cells.
# A549 [2] = assay: Cytoxicity / crystal violet staining, A549; details: average of triplicates, % of apoptotic cells vs DMSO controls, N.A. = not active at 10 μM
# Protocol: as §1, §2
# PC3 [3] = assay: Cytoxicity / crystal violet staining, PC3; details: Homo sapiens, PC-3; 0.01-5 μM for 72 hours, n=4
# A549 [4] = assay: Cytoxicity / crystal violet staining, A549; details: Homo sapiens, 0.01-5 μM for 72 hours, n=4
# A549 cells = assay: Invasion chambers (Transwell, Matrigel); details: serum chemoattractants, compared to untreated cells
# Protocol: The invasion of A549 cells was measured using Transwell chambers (Chemicon, Millipore, Calif.) according to the manufacturer's protocol. Briefly, A549 cells were treated with test compounds at 1 μM in 500 μl of DMEM medium without FBS for 24 hours. Medium in the upper chamber was serum-free while medium in the lower chamber contained 10% FBS as a source of chemoattractants. Cells that passed through the Matrigel-coated membrane were stained and photographed after 24 hours of incubation. Absorbance was measured at 562 nm by ELISA reader after dissolving of stained cells in 10% acetic acid.
# PC3 cells = assay: Immunostaining of α-tubulin and β-actin in PC3 cells; details: Compound 6 1 μM or docetaxel 20 nM, 24 hours
# Protocol: Immunofluorescence and immunostaining on cell lines and tumor samples were performed as described in Wegiel et al, Cancer research 2013, 73(23), 7009-21. Anti-mouse STMN1, anti-P (Ser10)-Histone H3, and α-tubulin antibody were obtained from Cell Signaling. β-actin antibody was obtained from Sigma-Aldrich. […] After immunofluorescence staining, the number of P-Histone H3 was quantified per field of view at 40× magnification using Zeiss Axiovert Microscope.
Compound,Cytoxicity (% cell killing at 10 μM) PC3 (PC3 [1]),Cytoxicity (% cell killing at 10 μM) A549 (A549 [2]),IC50 (PC3 [3]),IC50 (A549 [4]),invasion / migration through matrigel coated chambers (A549 cells),microtubule stability (α-tubulin immunostaining) (PC3 cells)
O=C1/C(=C/c2ccc3[nH]ccc3c2)CCc2ccc(Br)cc21 [Compound 19],42%,16%,–,–,–,–
"CCn1ccc2cc(/C=C3\CCc4ccc(F)cc4C3=O)ccc21 [Compound 8, (2E)-2-[(1-ethyl-1H-indol-5-yl)methylidene]-7-fluoro-1,2,3,4-tetrahydronaphthalen-1-one]",33%,38%,106 nM,113 nM,strongly inhibited invasion,–
COc1ccc2c(c1)C(=O)/C(=C/c1ccc3c(ccn3C)c1)CC2 [Compound 14],18%,21%,–,–,–,–
O=C1/C(=C/c2ccc3[nH]ccc3c2)CCc2ccccc21 [Compound 1],55%,47%,–,–,–,–
CCn1ccc2cc(/C=C3\CCc4cc(OC)c(OC)cc4C3=O)ccc21 [Compound 17],45%,19%,–,–,–,–
COc1ccc2c(c1)C(=O)/C(=C/c1ccc3[nH]ccc3c1)CC2 [Compound 13],55%,5%,–,–,–,–
Cn1ccc2ccc(/C=C3\CCc4ccccc4C3=O)cc21 [Compound 4],61%,53%,–,–,–,–
CC(=O)n1ccc2cc(/C=C3\CCc4ccc(F)cc4C3=O)ccc21 [Compound 9],24%,28%,–,–,–,–
CCn1ccc2cc(/C=C3\CCc4ccc(OC)cc4C3=O)ccc21 [Compound 12],49%,20%,–,–,–,–
CCn1ccc2cc(/C=C3\CCc4ccccc4C3=O)ccc21 [Compound 3],58%,52%,–,–,–,–
COc1ccc2c(c1)C(=O)/C(=C/c1ccc3ccn(C)c3c1)CC2 [Compound 15],42%,24%,–,–,–,–
"O=C1/C(=C/c2ccc3[nH]ccc3c2)CCc2ccc(F)cc21 [Compound 7, (2E)-7-fluoro-2-(1H-indol-5-ylmethylidene)-1,2,3,4-tetrahydronaphthalen-1-one]",45%,43%,449 nM,271 nM,accelerated migration,–
Cn1ccc2cc(/C=C3\CCc4ccc(Br)cc4C3=O)ccc21 [Compound 20],47%,21%,–,–,–,–
Cn1ccc2cc(/C=C3\CCc4ccccc4C3=O)ccc21 [Compound 2],52%,56%,–,–,–,–
Cn1ccc2ccc(/C=C3\CCc4ccc(Br)cc4C3=O)cc21 [Compound 21],39%,26%,–,–,–,–
COc1cc2c(cc1OC)C(=O)/C(=C/c1ccc3c(ccn3C)c1)CC2 [Compound 16],31%,–,–,–,–,–
COc1cc2c(cc1OC)C(=O)/C(=C/c1ccc3ccn(C)c3c1)CC2 [Compound 18],55%,41%,–,–,–,–
"CC(=O)O[C@@]12CO[C@@H]1C[C@H](O)[C@@]1(C)C(=O)[C@H](O)C3=C(C)[C@@H](OC(=O)[C@H](O)[C@@H](NC(=O)OC(C)(C)C)c4ccccc4)C[C@@](O)([C@@H](OC(=O)c4ccccc4)[C@H]21)C3(C)C [docetaxel, reference compound]",–,–,–,–,–,stabilization of microtubules
